Here are results for six compounds from patent publication US6934639B1, “Methods for designing agents that interact with MMP-13” (Wyeth, priority 2000, dated 2005).

Assay type in all cases: biochemical
One test concerns the target MMP-9 (Homo sapiens, UniProt P14780). As to the kind of experiment: MMP-9 enzyme inhibition (IC50).
A further test deals with T1, MMP-1 (Homo sapiens, UniProt P03956).
T1 sequence (P03956 100-469): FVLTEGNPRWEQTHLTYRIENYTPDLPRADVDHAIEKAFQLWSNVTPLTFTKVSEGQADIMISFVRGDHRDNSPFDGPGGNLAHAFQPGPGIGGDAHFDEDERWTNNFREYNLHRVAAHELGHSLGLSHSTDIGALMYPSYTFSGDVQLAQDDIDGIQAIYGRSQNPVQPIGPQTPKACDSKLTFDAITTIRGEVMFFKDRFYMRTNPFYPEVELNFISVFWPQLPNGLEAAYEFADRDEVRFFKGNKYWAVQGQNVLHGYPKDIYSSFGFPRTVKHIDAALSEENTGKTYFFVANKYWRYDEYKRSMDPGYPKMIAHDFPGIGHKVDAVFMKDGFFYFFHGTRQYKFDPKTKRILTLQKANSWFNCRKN
As to the kind of experiment: MMP-1 enzyme inhibition (IC50).

The target of another test is MMP-13 (Homo sapiens, UniProt P45452). As to the kind of experiment: MMP-13 enzyme inhibition (IC50).
A further test deals with TACE (Homo sapiens, UniProt P78536). As to the kind of experiment: TACE enzyme inhibition (IC50).
TACE, sequence (P78536 215-824): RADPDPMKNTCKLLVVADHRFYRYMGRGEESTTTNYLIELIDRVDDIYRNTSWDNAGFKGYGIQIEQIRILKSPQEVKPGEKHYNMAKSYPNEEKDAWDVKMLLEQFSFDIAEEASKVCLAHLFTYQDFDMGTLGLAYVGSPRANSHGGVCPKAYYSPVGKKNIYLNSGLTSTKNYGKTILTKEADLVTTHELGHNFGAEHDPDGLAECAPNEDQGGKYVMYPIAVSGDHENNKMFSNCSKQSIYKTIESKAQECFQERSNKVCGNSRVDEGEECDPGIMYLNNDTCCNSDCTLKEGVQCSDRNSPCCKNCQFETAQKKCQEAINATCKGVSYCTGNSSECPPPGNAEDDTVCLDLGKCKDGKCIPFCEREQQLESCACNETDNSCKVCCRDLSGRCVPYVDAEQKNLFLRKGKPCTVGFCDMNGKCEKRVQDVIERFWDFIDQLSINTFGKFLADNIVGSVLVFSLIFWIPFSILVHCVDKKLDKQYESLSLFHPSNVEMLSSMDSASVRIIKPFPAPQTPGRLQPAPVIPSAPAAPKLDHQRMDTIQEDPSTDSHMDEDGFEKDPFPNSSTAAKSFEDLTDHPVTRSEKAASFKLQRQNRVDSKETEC

MMP-9, sequence (P14780 94-707, species assumed): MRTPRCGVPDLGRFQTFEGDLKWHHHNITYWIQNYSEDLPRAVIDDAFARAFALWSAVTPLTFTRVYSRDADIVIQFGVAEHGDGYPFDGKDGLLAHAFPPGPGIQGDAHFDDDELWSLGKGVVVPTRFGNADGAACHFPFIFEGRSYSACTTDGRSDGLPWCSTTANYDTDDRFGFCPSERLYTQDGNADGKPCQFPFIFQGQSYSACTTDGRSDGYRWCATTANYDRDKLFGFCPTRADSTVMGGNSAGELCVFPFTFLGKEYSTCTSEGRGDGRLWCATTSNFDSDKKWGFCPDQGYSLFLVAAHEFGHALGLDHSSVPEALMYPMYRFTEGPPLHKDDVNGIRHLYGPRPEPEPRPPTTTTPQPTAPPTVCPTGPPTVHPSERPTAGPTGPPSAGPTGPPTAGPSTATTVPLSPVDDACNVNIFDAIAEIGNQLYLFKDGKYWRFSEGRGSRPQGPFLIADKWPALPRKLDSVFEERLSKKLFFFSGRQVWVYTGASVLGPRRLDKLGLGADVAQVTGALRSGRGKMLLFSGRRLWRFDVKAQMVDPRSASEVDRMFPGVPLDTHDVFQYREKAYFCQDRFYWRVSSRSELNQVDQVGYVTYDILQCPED

As usually defined, the IC50 is the concentration at which inhibition is half-maximal. Lower therefore signals greater potency in that assay. With `Cc1cc(C)c(N(Cc2ccccc2)S(=O)(=O)c2ccc(OCCCc3ccccc3)cc2)c(C(=O)NO)c1` [Compound F], the IC50 on MMP-9 is 71 nM; against MMP-1, 1020 nM; against MMP-13, 301 nM; against TACE, 664 nM. Further, the “S-9: selectivity, ratio of MMP-9 IC50 with MMP-13” value at MMP-9 (MMP-9 IC50 / MMP-13 IC50) is on record as 0.2 x. For the same compound, at MMP-1 (MMP-1 IC50 / MMP-13 IC50), the “S-1: selectivity, ratio of MMP-1 IC50 with MMP-13” value is given as 3.4 x. On TACE (TACE IC50 / MMP-13 IC50), the “S-TACE: selectivity, ratio of TACE IC50 with MMP-13” value stood at 2.2 x.
In the case of `Cc1cc(C)c(N(Cc2ccccc2)S(=O)(=O)c2ccc(OCCNC(=O)c3cc4ccccc4o3)cc2)c(C(=O)NO)c1` [Compound E, Benzofuran-2-carboxylic acid (2-{4-[benzyl-(2-hydroxycarbamoyl-4,6-dimethyl-phenyl)-sulfamoyl]-phenoxy}-ethyl)-amide], the half-inhibitory concentration (IC50) on MMP-9 turned out to be 945 nM; against MMP-13, 17 nM.
Regarding `COc1ccc(S(=O)(=O)N(Cc2ccccc2)c2c(C)cc(C)cc2C(=O)NO)cc1` [Compound D, 2-[Benzyl-(4-methoxy-benzenesulfonyl)-amino]-N-hydroxy-3,5-dimethyl-benzamide], half-maximal inhibition against TACE (IC50) was put at 240 nM.
For `Cc1cc(C)c(N(Cc2ccccc2)S(=O)(=O)c2ccc(OCCc3ccccc3)cc2)c(C(=O)NO)c1` [Compound C, 2-[Benzyl-(4-phenethyloxy-benzenesulfonyl)-amino]-N-hydroxy-3,5-dimethyl-benzamide], the IC50 on MMP-9 was 46 nM; against MMP-1 it was 750 nM; on MMP-13, 75 nM.
Take `COc1ccc(S(=O)(=O)N(Cc2cccnc2)c2c(C)cccc2C(=O)NO)cc1` [Compound A, N-Hydroxy-2-[(4-methoxy-benzenesulfonyl)-pyridin-3-ylmethyl-amino]-3-methyl-benzamide]: at MMP-13, the “potency as inhibitor of MMP-13” value was “low nanomolar”.
In the case of `COc1ccc(S(=O)(=O)N(Cc2cccnc2)[C@@H](C(=O)NO)C(C)C)cc1` [CGS-27023A, reference compound], the “potency as inhibitor of MMP-1” value at MMP-1 is listed as “low nanomolar”.
